From patent US20180271863A1, “TARGETING P2 PURINERGIC RECEPTORS TO TREAT HEPATOCELLULAR CARCINOMA (HCC)” (Baylor College of Medicine, priority 2015, published 2018)
Entries after “also recorded” stand apart in the source; their conditions may differ.

Legend:
Format in all cases: cell-based, human
Huh7 cells [1] = assay: BrdU incorporation (proliferation) in Huh7 cells; conditions: for BrdU incorporation / BrdU positive nuclei: nucleotide 100 μM
Experimental: To determine whether P2 purinergic receptor activation influences HCC cell proliferation, BrdU incorporation was assessed in HCC cells maintained in SFM for 24 hours and treated with ATP for 24 hours. ATP treatment alone was sufficient to induce proliferation in each of these cell lines (Huh7, 34%; Hep3B, 46%; SNU-387, 47% and PLC/PRF/5, 24%), identifying nucleotides as liver cancer cell mitogens (FIG. 7A).
Extracellular ATP can be hydrolyzed to ADP and adenosine by ectonucleotidases at the plasma membrane. Therefore, Applicants tested the effects of ATPγS (non-hydrolyzable analog of ATP) or ADP (break down product of ATP) (100 μM) on Huh7 cell proliferation. ATPγS treatment alone was sufficient to induce BrdU incorporation as early as 12 hours (42%); maintained at 18 h (30%) and 24 h (29%) in Huh7 cells (FIG. 8). ADP was also able to independently increase the number of BrdU positive nuclei (12 h, 30%; 18 h, 35%; 24 h, 37%) (FIG. 8). Furthermore, ATP treatment (18 h) increased cell proliferation and viability in all four cell lines, as determined by MTT assay (Huh7, 65%; Hep3B, 81%; SNU-387, 90% and PLC/PRF/5, 43%) (FIG. 7B).
(§1) Normal human primary hepatocytes isolated from healthy adults (no known history of HCC) in suspension or freshly-frozen prior to shipment (Cryoport Systems, CA) were purchased from Triangle Research Labs, NC. Fresh hepatocytes were plated on collagen-coated tissue culture plates or glass coverslips in Williams E complete media with additives (10% fetal bovine serum, 2 mM glutamine, […] insulin, 4 ng/ml glucagon, […] transferrin, 2.5 ng/ml sodium selenite, 10,000 U/ml penicillin, […] streptomycin, 50 g/ml gentamycin) for 3 h to ensure hepatocyte adherence to plates. Subsequently, hepatocytes were maintained in Williams E minimal media free from serum and growth factors for 24 h prior to treatment. Human hepatocellular carcinoma derived Huh7, and Hep3B, were cultured in Minimum Essential Medium Eagle (MEM); SNU-387 was cultured in Roswell Park Memorial Institute (RPMI) medium and PLC/PRF/5 cultured in Dulbecco's Modified Eagle's medium (DMEM). All maintenance culture media were supplemented with 10% fetal bovine serum (FBS), L-Glutamine (2 mM), penicillin (100 units/ml) and streptomycin ([…]) at 37° C. and 5% CO2. Cells were maintained in serum free media (containing 2 mM L-Glutamine, 100 units/ml penicillin and ([…])) streptomycin for 24 h prior to treatment.
(§2) Formalin-fixed and paraffin embedded liver sections from HCC patients were analyzed by immunohistochemistry with anti-P2X3 antibody (Abcam, Cambridge, Mass.). HCC cells were grown on glass coverslips; BrdU (10 μM, Roche, Indianapolis, Ind.) was added to culture media for 1 h prior to fixation (cold acetone:methanol, 1:1) and stained using anti-BrdU antibody (DAKO, Carpinteria, Calif.) and DAB Peroxidase Substrate Kit (Vector Labs, Burlingame, Calif.), according to manufacturer's instructions. Counterstaining was done with hematoxylin. BrdU positive cells were counted and expressed as a percentage of the total number of cells in ten randomly selected high-power fields (20×) per coverslips.

Huh7 cells [2] = assay: Western blotting of cyclin and CDK proteins in Huh7 cells
Experimental: as §1
Total protein extracts were obtained by homogenizing cells in total lysis buffer (50 mM Tris-HCl, pH 7.5, 0.5 M NaCl, 2 mM EGTA, 2 mM EDTA, 1.0% Triton X-100, 0.25% Deoxycholate, 1 m/ml pepstatin, 1.0 m/ml leupeptin, 1.0 m/ml aprotinin, 1.0 mM phenylmethylsulfonyl fluoride, 1.0 mM Dithiothreitol, 2.0 mM activated Na3VO4, and 2.0 mM NaF) and centrifuging at 14,000 rpm for 10 min (4° C.). Equal amounts of total proteins as determined by BCA protein Assay (Pierce, Rockford, Ill.) were analyzed by Western blotting. Blots were probed with antibody specific for a-tubulin or GAPDH to ensure equal loading of proteins in each lane.

[3] = system: Huh7 cells overexpressing P2X3; assay: BrdU incorporation in Huh7 cells transfected with P2X3 or pCMV6 vector
Experimental: as §2, with “Thereafter, these cells were treated with ATP+/-P2X3 antagonist, AF-353. […] Huh7 cells were maintained in MEM with 10% fetal bovine serum (FBS), 5% L-Glutamine and 5% Penicillin-streptomycin overnight. P2X3 or pCMV6 vector control plasmids (1 m) were transfected with Turbofectin 8.00 (Origene Technologies, Rockville, Md.) in MEM with 5% L-Glutamine. Media was […] hours, according to manufacturer's instructions. Formalin-fixed” for “Formalin-fixed”

[4] = antagonist alone, serum-free conditions
[5] = transfected Huh7, ATP 100 μM, 24 h

COc1cc(C(C)C)c(Oc2cnc(N)nc2N)cc1I [AF-353]
effect on ATP-mediated increase in BrdU incorporation (Huh7 cells [1]; AF-353 5 μM pre-treatment, ATP 100 μM 24 hr): completely abolished; also recorded: attenuates | effect on baseline BrdU-positive cells (Huh7 cells [1]; [4]): reduce | effect on ATP-mediated induction of cyclin D3 and cyclin E expression (Huh7 cells [2]; AF-353 5 μM pre-treatment, ATP 24 h): completely attenuated | effect on baseline cyclin protein expression (Huh7 cells [2]; [4]): reduce | effect on P2X3 mediated increase in proliferation (BrdU) ([3]; P2X3-overexpressing Huh7, AF-353 5 μM, 24 h): completely attenuated | effect on ATP mediated increase in BrdU incorporation ([3]; transfected Huh7, AF-353 5 μM pre-treatment, ATP 100 μM 24 h): significantly attenuated

Nc1ncnc2c1ncn2[C@@H]1O[C@H](COP(=O)(O)OP(=O)(O)OP(=O)(O)O)[C@@H](O)[C@H]1O [ATP]
proliferation (BrdU incorporation) induced by ATP (Huh7 cells [1]; SFM 24 hours, ATP 24 hours): 34% | cyclin D3 protein expression (Huh7 cells [2]; ATP 24 hours, serum-free): 3.2 fold | ATP mediated proliferation in P2X3-overexpressing cells vs cells transfected with only pCMV6 [3, 5]: significantly higher | BrdU incorporation compared to the pCMV6 control [3, 5]: further increased

Nc1ncnc2c1ncn2[C@@H]1O[C@H](COP(=O)(O)OP(=O)(O)OP(O)(O)=S)[C@@H](O)[C@H]1O [ATPγS]
BrdU incorporation / BrdU positive nuclei (Huh7 cells [1]; 12 h): 42% | BrdU incorporation / BrdU positive nuclei (Huh7 cells [1]; 18 h): 30% | BrdU incorporation / BrdU positive nuclei (Huh7 cells [1]; 24 h): 29% | cyclin A protein expression (Huh7 cells [2]; ATPγS 18 h): 1.7 fold | cyclin D3 protein expression (Huh7 cells [2]; ATPγS 18 h): 2.7 fold | cyclin E protein expression (Huh7 cells [2]; ATPγS 18 h): 1.7 fold | cyclin A protein expression (Huh7 cells [2]; ATPγS 24 h): 1.2 fold | cyclin D3 protein expression (Huh7 cells [2]; ATPγS 24 h): 2.8 fold | cyclin E protein expression (Huh7 cells [2]; ATPγS 24 h): 1.3 fold | CDK2 protein expression (Huh7 cells [2]; ATPγS 30 h): 1.6 fold | CDK4 protein expression (Huh7 cells [2]; ATPγS 30 h): 1.4 fold | cyclin A protein expression (Huh7 cells [2]; ATPγS 30 h): 1.2 fold | cyclin D3 protein expression (Huh7 cells [2]; ATPγS 30 h): 2.1 fold | cyclin E protein expression (Huh7 cells [2]; ATPγS 30 h): 2.2 fold
